Reference: the NIST ThermoML archive (doi:10.1016/j.fluid.2013.07.012)
Numbers after ± are expanded uncertainties.

Experiment: xn = mol fraction of the nth substance listed
Details: 101 kPa, Liquid, Direct current cell with electrodes

CCN(CC)CCO.Cl [2-(diethylamino)ethanol hydrochloride] + OCC(O)CO
electrical conductivity [S/m]
Details | x1 = 0.2 | x1 = 0.25 | x1 = 0.34
298.15 K | 0.0487 ± 0.0013 | 0.0602 ± 0.0016 | 0.075 ± 0.002
303.15 K | 0.078 ± 0.001 | 0.0958 ± 0.0011 | 0.118 ± 0.0019
308.15 K | 0.11 ± 0.0014 | 0.104 ± 0.0013 | 0.164 ± 0.0019
313.15 K | 0.139 ± 0.0017 | 0.156 ± 0.0022 | 0.207 ± 0.0022
318.15 K | 0.188 ± 0.002 | 0.211 ± 0.0022 | 0.2716 ± 0.0027
323.15 K | 0.2357 ± 0.0018 | 0.264 ± 0.0027 | 0.3381 ± 0.0024
328.15 K | 0.2716 ± 0.0019 | 0.3426 ± 0.003 | 0.3903 ± 0.0031
333.15 K | 0.3246 ± 0.0026 | 0.4086 ± 0.003 | 0.4878 ± 0.0038
338.15 K | 0.3962 ± 0.0029 | 0.4916 ± 0.0034 | 0.5754 ± 0.0033
343.15 K | 0.4646 ± 0.0028 | 0.5748 ± 0.0032 | 0.6521 ± 0.004
348.15 K | 0.5335 ± 0.003 | 0.6474 ± 0.0028 | 0.7754 ± 0.0052
353.15 K | 0.6095 ± 0.0031 | 0.71 ± 0.01 | 0.9109 ± 0.0055

CCN(CC)CCO.Cl [2-(diethylamino)ethanol hydrochloride] + OCCO
electrical conductivity [S/m]
Details | x1 = 0.2 | x1 = 0.25 | x1 = 0.34
298.15 K | 0.5661 ± 0.0054 | 0.543 ± 0.0057 | 0.512 ± 0.006
303.15 K | 0.6994 ± 0.0052 | 0.6878 ± 0.0058 | 0.6627 ± 0.0057
308.15 K | 0.8245 ± 0.0054 | 0.8305 ± 0.0053 | 0.794 ± 0.005
313.15 K | 0.9699 ± 0.0067 | 0.9486 ± 0.0061 | 0.9283 ± 0.0061
318.15 K | 1.158 ± 0.0074 | 1.134 ± 0.0073 | 1.095 ± 0.0065
323.15 K | 1.341 ± 0.007 | 1.315 ± 0.0069 | 1.254 ± 0.0068
328.15 K | 1.509 ± 0.0075 | 1.477 ± 0.0071 | 1.433 ± 0.007
333.15 K | 1.714 ± 0.0074 | 1.666 ± 0.0073 | 1.616 ± 0.0069
338.15 K | 1.875 ± 0.0063 | 1.839 ± 0.0065 | 1.778 ± 0.0065
343.15 K | 2.029 ± 0.007 | 1.99 ± 0.01 | 1.942 ± 0.0072
348.15 K | 2.226 ± 0.0076 | 2.192 ± 0.0076 | 2.135 ± 0.0074
353.15 K | 2.405 ± 0.0072 | 2.367 ± 0.0071 | 2.31 ± 0.007

C[N+](C)(C)CCO.[Cl-] [choline chloride] + OCC(O)CO
electrical conductivity [S/m]
Details | x1 = 0.25 | x1 = 0.34 | x1 = 0.5
298.15 K | 0.1463 ± 0.0007 | 0.1749 ± 0.0013 | 0.1929 ± 0.0012
303.15 K | 0.1553 ± 0.0013 | 0.1951 ± 0.0017 | 0.219 ± 0.0025
308.15 K | 0.203 ± 0.0021 | 0.2549 ± 0.0022 | 0.3161 ± 0.003
313.15 K | 0.257 ± 0.002 | 0.3004 ± 0.0029 | 0.368 ± 0.003
318.15 K | 0.3112 ± 0.0026 | 0.399 ± 0.0043 | 0.4603 ± 0.0044
323.15 K | 0.3816 ± 0.0035 | 0.512 ± 0.004 | 0.5864 ± 0.0042
328.15 K | 0.4811 ± 0.0039 | 0.6046 ± 0.0042 | 0.6668 ± 0.0039
333.15 K | 0.5757 ± 0.0039 | 0.7187 ± 0.0043 | 0.7805 ± 0.0047
338.15 K | 0.6717 ± 0.0041 | 0.816 ± 0.004 | 0.898 ± 0.004
343.15 K | 0.7805 ± 0.0052 | 0.8955 ± 0.005 | 0.9863 ± 0.0052
348.15 K | 0.9286 ± 0.006 | 1.063 ± 0.0065 | 1.155 ± 0.0062
353.15 K | 1.08 ± 0.01 | 1.219 ± 0.0047 | 1.295 ± 0.0057

C[N+](C)(C)CCO.[Cl-] [choline chloride] + OCCO
electrical conductivity [S/m]
Details | x1 = 0.28 | x1 = 0.34 | x1 = 0.36
298.15 K | 0.832 ± 0.0094 | 0.733 ± 0.012 | 0.68 ± 0.0094
303.15 K | 1.067 ± 0.0075 | 1.019 ± 0.0082 | 0.9138 ± 0.0081
308.15 K | 1.207 ± 0.007 | 1.141 ± 0.0068 | 1.086 ± 0.0076
313.15 K | 1.413 ± 0.009 | 1.355 ± 0.009 | 1.294 ± 0.0079
318.15 K | 1.656 ± 0.0077 | 1.589 ± 0.0073 | 1.479 ± 0.0068
323.15 K | 1.798 ± 0.0094 | 1.718 ± 0.0087 | 1.633 ± 0.0072
328.15 K | 2.126 ± 0.013 | 2.023 ± 0.012 | 1.839 ± 0.0076
333.15 K | 2.425 ± 0.0078 | 2.299 ± 0.008 | 2.01 ± 0.0068
338.15 K | 2.515 ± 0.0041 | 2.42 ± 0.01 | 2.177 ± 0.0068
343.15 K | 2.627 ± 0.0053 | 2.56 ± 0.0058 | 2.347 ± 0.006
348.15 K | 2.78 ± 0.0049 | 2.707 ± 0.005 | 2.475 ± 0.005
353.15 K | 2.869 ± 0.004 | 2.8072 ± 0.0009 | 2.604 ± 0.0052

C[P+](c1ccccc1)(c1ccccc1)c1ccccc1.[Br-] [methyltriphenylphosphonium bromide] + OCC(O)CO
electrical conductivity [S/m]
Details | x1 = 0.2 | x1 = 0.25 | x1 = 0.34
298.15 K | 0.0116 ± 0.0006 | 0.0103 ± 0.0006 | 0.0062 ± 0.0006
303.15 K | 0.0198 ± 0.0006 | 0.0172 ± 0.0006 | 0.0124 ± 0.0006
308.15 K | 0.037 ± 0.001 | 0.0319 ± 0.0006 | 0.0186 ± 0.0006
313.15 K | 0.041 ± 0.001 | 0.0394 ± 0.0006 | 0.0277 ± 0.0006
318.15 K | 0.0607 ± 0.0006 | 0.0549 ± 0.0006 | 0.0405 ± 0.0006
323.15 K | 0.0816 ± 0.0006 | 0.0719 ± 0.0006 | 0.0496 ± 0.0006
328.15 K | 0.0965 ± 0.0006 | 0.0927 ± 0.0006 | 0.0701 ± 0.0006
333.15 K | 0.1233 ± 0.0006 | 0.1124 ± 0.0006 | 0.0858 ± 0.0006
338.15 K | 0.1608 ± 0.0006 | 0.1487 ± 0.0006 | 0.116 ± 0.001
343.15 K | 0.1971 ± 0.0007 | 0.1778 ± 0.0006 | 0.1493 ± 0.0006
348.15 K | 0.2874 ± 0.0007 | 0.2196 ± 0.0006 | 0.1811 ± 0.0006
353.15 K | 0.3594 ± 0.0007 | 0.2599 ± 0.0007 | 0.2154 ± 0.0006

C[P+](c1ccccc1)(c1ccccc1)c1ccccc1.[Br-] [methyltriphenylphosphonium bromide] + OCCO
electrical conductivity [S/m]
Details | x1 = 0.16 | x1 = 0.2 | x1 = 0.25
298.15 K | 0.194 ± 0.0026 | 0.156 ± 0.0026 | 0.109 ± 0.0021
303.15 K | 0.257 ± 0.002 | 0.219 ± 0.0023 | 0.16 ± 0.0018
308.15 K | 0.3103 ± 0.0026 | 0.2649 ± 0.0022 | 0.1914 ± 0.0019
313.15 K | 0.3845 ± 0.0027 | 0.3246 ± 0.0025 | 0.2502 ± 0.0022
318.15 K | 0.4437 ± 0.0025 | 0.3858 ± 0.0024 | 0.2964 ± 0.0016
323.15 K | 0.5072 ± 0.0037 | 0.4405 ± 0.0031 | 0.3265 ± 0.0028
328.15 K | 0.6279 ± 0.0041 | 0.5395 ± 0.0037 | 0.4307 ± 0.0038
333.15 K | 0.711 ± 0.004 | 0.6221 ± 0.0041 | 0.5129 ± 0.003
338.15 K | 0.8169 ± 0.0048 | 0.7423 ± 0.004 | 0.5797 ± 0.0036
343.15 K | 0.9496 ± 0.0043 | 0.8192 ± 0.0034 | 0.6923 ± 0.0032
348.15 K | 1.031 ± 0.003 | 0.9074 ± 0.0037 | 0.7372 ± 0.0025
353.15 K | 1.12 ± 0.0036 | 1.003 ± 0.0033 | 0.8114 ± 0.003
